The record followed here is patent US10562857B2 (AFASCI, Inc., priority 2015, dated 2020).

Test [1] addresses T1, Cardiac Na+ channels (Homo sapiens, UniProt Q14524).
T1 construct: host or cells: human iPSC-derived cardiomyocytes
As to the kind of experiment: Cardiac sodium currents in human iPSC-derived cardiomyocytes. In kind it is cell-based. The settings on record: for IC50: human iPSC cardiomyocytes. The protocol: Cardiac sodium channels play a critical role in heart contraction. Inhibition of these sodium channels could potentially cause severe unwanted side effects. Therefore the representative example compounds in Table 2 were tested in cardiac sodium channels. Cardiomyocytes derived from human induced pluripotent stem cells (iPSC-CM) were obtained from Axol Bioscience Ltd (Cambridge, UK). Cells were thawed and grown on matrigel coated glass coverslips in Cardiomyocyte Maintenance Medium (Axol Bioscience). […] The internal solution was composed (in mM) of 120 KF, 10 HEPES, 11 EGTA, 1 CaCl2, 1 MgCl2, 10 TEA-Cl (pH 7.2 adjusted with KOH). Sodium currents were recorded at a holding potential of −100 mV and depolarized to −20 mV. Cells were incubated with example compounds until currents reached a steady-state level. To determine IC50 values, example compounds were applied gradually from low to high concentrations. The current responses were normalized to the control, percent inhibition was calculated and a sigmoidal dose response curve was plotted to determine IC50 values as described above.

Test [2] has as its system PTZ-induced seizures in mice. The test can be described thus: Pentylenetetrazol (PTZ)-induced seizures in mice. In kind it is in vivo, mouse. Conditions: for latency to seizures / fatality latency / fatality rate: 30 mg/kg I.P., PTZ 40 mg/kg I.P.; for fatality latency / fatality rate: 20 min cutoff. The protocol: FIG. 10. […] Sixty minutes (min) prior to receiving PTZ (40 mg/kg, I.P.), each mouse was pretreated with either an Example compound, ML218, Z944 or vehicle (2% DMSO in 0.5% HPC). Fatality rate (%) of mice in each group that dies within the 20 minutes observation period—was calculated. Both fatality rate and latency (data not shown) to death were used to evaluate the Example compound's ability to prevent death resulting from PTZ-induced seizures. A cutoff of 20 minutes was set for observational and statistical analysis purposes.
It is well known that antiepileptics, e.g. carbamazepine, lamotrigine and gabapentin are used for the treatment of neuropathic pain (Xie et al., 1995, Caviedes and Herranz, 2001). T-channel overactivation is involved in the generation of seizure activity (Huguenard, 1998, Cribbs et al., 2000, Perez-Reyes et al., 2009, Perez-Reyes, 2010). […] Fatality latency and rate—the percentage (%) of mice in each treatment group that died within a 20 minute cutoff of the observational period, were recorded and calculated. Averaged fatality latency and rate of each treatment group was used to evaluate the Example compound's ability to either prevent or delay the onset of PTZ-induced seizures and death.

The target of test [3] is T2, Cav3.3 (Homo sapiens, UniProt Q9P0X4).
T2 construct: expressed in transfected cells; host or cells: HEK-293, tetracycline inducible expression system (Invitrogen)
As to the kind of experiment: Whole-cell patch clamp of T-type Cav3.3 channel expressed in HEK293 cells. The settings on record: Table 2. In kind it is cell-based. The protocol:
Cav3.1, Cav3.2 or Cav3.3 channels were expressed in human embryonic kidney (HEK)-293 cells using a tetracycline inducible expression system (Invitrogen). Cells were maintained in 25 cm^2 tissue culture flasks at 37° C., 5% CO2, and 100% relative humidity in D-MEM/F12 (Dulbecco's Modified Eagle Medium/Nutrient Mixture F-12; Gibco) supplemented with fetal bovine serum (FBS, 10% v/v), sodium pyruvate (0.5 mM, Gibco), penicillin-streptomycin (100 U/mL, 100 μg/mL) and Geneticin® Selective antibiotic (G418; 0.5 mg/mL). Cells were detached from the flask base using a non-enzymatic cell dissociation solution (Cellstripper, Corning), removed and re-seeded on to poly-D-lysine coated glass coverslips in 35 mm dishes.
Whole-cell voltage clamp recordings were performed on rat or mouse DRG neurons within 2 days after acutely dissociation or cultured HEK293 cells expressing T-type channels (encoded by Cav3.1, Cav3.2 or Cav3.3 channels). All experiments were performed at room temperature (around 21° C.). Whole-cell currents were recorded using a MultiClamp 700B amplifier and analyzed offline with pCLAMP10.4 software (Molecular Devices, LLC, Sunnyvale Calif., USA). […] Since the sodium ions were absent in the external solution, tetrodoctoxin was not needed. Calcium currents were recorded at a holding potential of −100 mV and then depolarized to −30 mV for 100 ms to activate either Cav3.1, Cav3.2, or Cav3.3 expressed in HEK cells. An interpulse interval of 10 seconds allowed the channel recovery from inactivation, and achieved stable current recordings. To record sodium (Na^+) currents in DRG neurons, the external solution used the modified Krebs solution specified above. The internal solution was composed (in mM) of 120 CsF, 10 HEPES, 11 EGTA, 1 CaCl2, 1 MgCl2, 10 TEA-Cl, 4 MgATP and 0.3 MgGTP (pH 7.3-7.4 adjusted with CsOH). […] To record potassium currents in DRG neurons, the external solution used the modified Kreb's solution specified above. The internal solution was composed (in mM) of 65 KCl, 80 KF, 5 KOH, 10 EGTA, 2 MgATP (pH 7.3-7.4 adjusted with KOH). Recording electrodes were fabricated using a P-87 puller (Sutter Instrument Co., Novato, Calif., USA). The tip of resistance was 3-4 MQ in bath and the series resistance was less than 10 MΩ after whole cell configuration. All reagents were purchased from Sigma unless specified otherwise. Test compounds were usually applied via a rapid solution exchange system with 8 fine polyplastic tubings (100 μm, OD) glued in a holder in parallel and located closely to the recorded cells. The current responses were normalized to the control, percent inhibition was calculated and sigmoidal dose-response curves were generated using XLFit (IDBS, Surrey, UK) or Prism (GraphPad Software, La Jolla, Calif., US) to calculate IC50 values and Hill slopes using the following equation Y=Bottom+(Top−Bottom)/(1+10^((Log EC50−X)[…])).

T2 sequence (Q9P0X4 whole entry, species assumed): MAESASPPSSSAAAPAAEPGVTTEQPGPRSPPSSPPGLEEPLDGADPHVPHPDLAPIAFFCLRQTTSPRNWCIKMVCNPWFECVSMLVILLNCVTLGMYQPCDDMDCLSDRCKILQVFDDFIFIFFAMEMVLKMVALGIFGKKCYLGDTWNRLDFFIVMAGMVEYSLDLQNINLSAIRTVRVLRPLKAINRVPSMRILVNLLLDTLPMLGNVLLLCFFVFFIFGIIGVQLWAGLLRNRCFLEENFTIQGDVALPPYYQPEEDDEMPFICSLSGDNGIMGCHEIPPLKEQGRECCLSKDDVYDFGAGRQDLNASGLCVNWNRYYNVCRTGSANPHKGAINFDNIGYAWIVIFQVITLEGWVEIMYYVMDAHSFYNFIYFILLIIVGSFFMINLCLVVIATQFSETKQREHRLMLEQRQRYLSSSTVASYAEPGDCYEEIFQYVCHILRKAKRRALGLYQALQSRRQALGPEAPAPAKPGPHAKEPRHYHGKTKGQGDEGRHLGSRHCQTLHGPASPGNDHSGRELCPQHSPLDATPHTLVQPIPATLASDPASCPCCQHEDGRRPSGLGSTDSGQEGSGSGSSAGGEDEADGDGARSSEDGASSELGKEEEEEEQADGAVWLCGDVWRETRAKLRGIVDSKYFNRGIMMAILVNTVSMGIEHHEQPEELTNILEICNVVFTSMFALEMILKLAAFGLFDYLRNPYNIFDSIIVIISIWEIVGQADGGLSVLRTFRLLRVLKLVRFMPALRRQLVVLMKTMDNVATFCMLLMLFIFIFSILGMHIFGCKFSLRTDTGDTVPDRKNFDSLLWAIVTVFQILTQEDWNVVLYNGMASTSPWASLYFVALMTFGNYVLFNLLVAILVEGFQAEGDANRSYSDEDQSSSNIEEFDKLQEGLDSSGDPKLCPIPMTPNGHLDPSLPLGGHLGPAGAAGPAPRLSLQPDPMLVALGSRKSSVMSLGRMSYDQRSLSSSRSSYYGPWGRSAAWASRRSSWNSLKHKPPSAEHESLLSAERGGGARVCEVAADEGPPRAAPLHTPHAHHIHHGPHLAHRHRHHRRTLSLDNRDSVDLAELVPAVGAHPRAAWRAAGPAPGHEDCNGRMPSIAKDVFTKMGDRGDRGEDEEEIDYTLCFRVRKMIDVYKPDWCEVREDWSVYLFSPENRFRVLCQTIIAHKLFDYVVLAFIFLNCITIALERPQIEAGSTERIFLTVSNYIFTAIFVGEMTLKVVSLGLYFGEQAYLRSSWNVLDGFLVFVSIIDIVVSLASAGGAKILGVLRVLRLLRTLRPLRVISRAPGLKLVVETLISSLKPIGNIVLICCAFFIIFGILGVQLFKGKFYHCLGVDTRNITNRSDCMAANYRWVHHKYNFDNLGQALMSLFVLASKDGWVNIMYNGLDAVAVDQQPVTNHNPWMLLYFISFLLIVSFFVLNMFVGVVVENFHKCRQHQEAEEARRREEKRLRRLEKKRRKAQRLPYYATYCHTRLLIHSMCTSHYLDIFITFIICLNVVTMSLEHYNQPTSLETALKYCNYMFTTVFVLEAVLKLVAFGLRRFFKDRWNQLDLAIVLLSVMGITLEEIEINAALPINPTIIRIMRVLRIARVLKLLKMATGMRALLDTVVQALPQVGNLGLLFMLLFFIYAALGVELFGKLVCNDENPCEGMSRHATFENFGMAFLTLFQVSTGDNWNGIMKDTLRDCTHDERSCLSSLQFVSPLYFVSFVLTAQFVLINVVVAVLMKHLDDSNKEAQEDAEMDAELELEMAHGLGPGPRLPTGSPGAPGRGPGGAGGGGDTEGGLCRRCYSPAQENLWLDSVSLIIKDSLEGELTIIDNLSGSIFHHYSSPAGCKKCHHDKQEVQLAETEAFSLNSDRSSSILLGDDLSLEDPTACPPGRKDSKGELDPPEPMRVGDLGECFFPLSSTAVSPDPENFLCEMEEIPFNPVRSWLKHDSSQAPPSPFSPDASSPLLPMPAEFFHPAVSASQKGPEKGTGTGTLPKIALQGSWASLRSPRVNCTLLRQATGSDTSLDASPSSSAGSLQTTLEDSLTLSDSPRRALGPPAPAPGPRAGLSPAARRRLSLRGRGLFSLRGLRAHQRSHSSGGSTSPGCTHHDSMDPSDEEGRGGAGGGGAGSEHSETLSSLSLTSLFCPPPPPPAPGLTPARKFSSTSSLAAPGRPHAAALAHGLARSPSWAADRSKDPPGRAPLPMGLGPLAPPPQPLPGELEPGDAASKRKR
T1 sequence (Q14524 whole entry): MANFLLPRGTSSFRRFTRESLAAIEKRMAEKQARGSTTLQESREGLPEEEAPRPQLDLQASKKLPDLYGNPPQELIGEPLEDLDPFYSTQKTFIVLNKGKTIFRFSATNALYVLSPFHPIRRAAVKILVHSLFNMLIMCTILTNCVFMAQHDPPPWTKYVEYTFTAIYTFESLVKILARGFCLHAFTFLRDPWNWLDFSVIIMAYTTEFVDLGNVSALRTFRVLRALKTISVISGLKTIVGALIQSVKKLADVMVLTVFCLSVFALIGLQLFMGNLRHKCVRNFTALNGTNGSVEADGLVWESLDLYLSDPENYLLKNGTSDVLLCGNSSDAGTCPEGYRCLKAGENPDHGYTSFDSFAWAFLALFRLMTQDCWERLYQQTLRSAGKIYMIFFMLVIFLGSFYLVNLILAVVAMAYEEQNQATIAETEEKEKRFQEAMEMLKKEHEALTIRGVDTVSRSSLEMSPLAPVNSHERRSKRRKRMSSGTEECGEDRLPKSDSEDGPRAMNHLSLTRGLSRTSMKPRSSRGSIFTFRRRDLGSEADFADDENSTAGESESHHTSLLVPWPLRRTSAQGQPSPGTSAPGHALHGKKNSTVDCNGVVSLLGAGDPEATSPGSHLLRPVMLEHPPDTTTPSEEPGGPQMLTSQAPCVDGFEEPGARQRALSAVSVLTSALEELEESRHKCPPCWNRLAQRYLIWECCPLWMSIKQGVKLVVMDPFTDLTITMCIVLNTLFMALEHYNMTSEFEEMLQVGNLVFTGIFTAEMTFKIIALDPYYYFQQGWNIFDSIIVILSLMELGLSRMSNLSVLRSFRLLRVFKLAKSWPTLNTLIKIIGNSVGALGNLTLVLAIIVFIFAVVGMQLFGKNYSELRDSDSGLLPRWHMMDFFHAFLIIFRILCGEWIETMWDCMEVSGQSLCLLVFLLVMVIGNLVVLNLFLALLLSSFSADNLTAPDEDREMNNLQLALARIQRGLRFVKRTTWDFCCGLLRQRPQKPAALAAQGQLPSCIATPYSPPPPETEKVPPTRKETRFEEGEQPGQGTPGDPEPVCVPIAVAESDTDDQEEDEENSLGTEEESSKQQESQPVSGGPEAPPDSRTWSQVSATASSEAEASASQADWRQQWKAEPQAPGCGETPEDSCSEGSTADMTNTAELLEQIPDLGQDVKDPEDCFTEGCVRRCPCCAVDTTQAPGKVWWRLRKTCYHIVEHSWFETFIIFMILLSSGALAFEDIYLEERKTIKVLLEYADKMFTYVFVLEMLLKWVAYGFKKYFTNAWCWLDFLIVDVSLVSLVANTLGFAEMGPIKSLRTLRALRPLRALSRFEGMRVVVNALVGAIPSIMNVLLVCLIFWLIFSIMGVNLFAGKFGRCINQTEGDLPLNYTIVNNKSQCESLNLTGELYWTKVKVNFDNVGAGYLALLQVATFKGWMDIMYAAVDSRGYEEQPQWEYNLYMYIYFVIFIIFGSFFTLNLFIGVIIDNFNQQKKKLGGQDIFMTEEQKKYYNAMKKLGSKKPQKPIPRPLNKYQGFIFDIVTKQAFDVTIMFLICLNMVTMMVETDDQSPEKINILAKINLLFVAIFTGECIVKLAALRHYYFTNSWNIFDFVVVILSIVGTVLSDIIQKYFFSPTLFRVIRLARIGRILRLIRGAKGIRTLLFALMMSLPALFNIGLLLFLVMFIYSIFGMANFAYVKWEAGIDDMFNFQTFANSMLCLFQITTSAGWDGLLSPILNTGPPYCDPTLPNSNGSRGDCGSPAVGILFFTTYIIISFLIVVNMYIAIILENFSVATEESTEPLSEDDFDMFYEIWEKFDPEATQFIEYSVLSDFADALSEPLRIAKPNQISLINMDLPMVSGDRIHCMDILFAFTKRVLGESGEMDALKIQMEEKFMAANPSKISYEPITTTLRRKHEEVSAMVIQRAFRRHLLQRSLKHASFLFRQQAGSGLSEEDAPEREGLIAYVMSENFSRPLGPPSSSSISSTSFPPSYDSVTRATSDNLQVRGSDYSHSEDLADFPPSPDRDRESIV

`CC(C)(C)NC(=O)CN1CCC2(CC1)C[C@H]2NC(=O)c1cc(Cl)cc(Cl)c1` (single isomer, unassigned) [Example 57, (R)—N-(6-(2-(tert-Butylamino)-2-oxoethyl)-6-azaspiro[2.5]octan-1-yl)-3,5-dichlorobenzamide or (S)—N-(6-(2-(tert-Butylamino)-2-oxoethyl)-6-azaspiro[2.5]octan-1-yl)-3,5-dichlorobenzamide] gave a half-maximal inhibitory concentration (IC50) in test [1] of 50.9 µM. Further, in test [2], the latency to seizures entry was “significantly prolonged latencies to seizures”, the fatality latency result was “prolonged fatality latencies” and the fatality rate result was “decreased the fatality rate”. Half-maximal inhibition in test [3] (IC50) required 0.098 µM.

The compound `CC(C)(C)NC(=O)CN1CCC2(CC1)CC2NC(=O)c1cc(F)cc(Cl)c1` (single isomer, unassigned) [Example 128, (S)—N-(6-(2-(tert-Butylamino)-2-oxoethyl)-6-azaspiro[2.5]octan-1-yl)-3-chloro-5-fluorobenzamide or (R)—N-(6-(2-(tert-Butylamino)-2-oxoethyl)-6-azaspiro[2.5]octan-1-yl)-3-chloro-5-fluorobenzamide] displayed an IC50 in test [1] of 83.5 µM. Also, the “PTZ-induced Fatality (%)” value in test [2] (30 mg/kg I.P. 60 min before PTZ 40 mg/kg I.P., death within 20 min) is 16.7%. Moreover, in test [2], the latency to seizures result is “significantly prolonged latencies to seizures”, the fatality latency entry is “prolonged fatality latencies” and the fatality rate entry is on record as “decreased the fatality rate”. The compound further yielded an IC50 in test [3] of 0.75 µM.

`CC(C)(C)NC(=O)CN1CCC2(CC1)C[C@H]2NC(=O)c1cc(F)cc(Cl)c1` (single isomer, unassigned) [Example 129, (R)—N-(6-(2-(tert-Butylamino)-2-oxoethyl)-6-azaspiro[2.5]octan-1-yl)-3-chloro-5-fluorobenzamide or (S)—N-(6-(2-(tert-Butylamino)-2-oxoethyl)-6-azaspiro[2.5]octan-1-yl)-3-chloro-5-fluorobenzamide]: in test [2], the latency to seizures entry is recorded as “significantly prolonged latencies to seizures”, the fatality latency result is given as “prolonged fatality latencies” and the fatality rate entry was “decreased the fatality rate”. Moreover, the IC50 in test [3] was 1.63 µM.

Consider `CC(C)(C)NC(=O)CN1CCC2(CC1)C[C@H]2NC(=O)c1cc(F)cc(C(F)(F)F)c1` (single isomer, unassigned) [Example 130, (R)—N-(6-(2-(tert-Butylamino)-2-oxoethyl)-6-azaspiro[2.5]octan-1-yl)-3-fluoro-5-(trifluoromethyl)benzamide or (S)—N-(6-(2-(tert-Butylamino)-2-oxoethyl)-6-azaspiro[2.5]octan-1-yl)-3-fluoro-5-(trifluoromethyl)benzamide], for which the IC50 in test [1] turned out to be 31.4 µM. Also, in test [2], the latency to seizures entry is on record as “significantly prolonged latencies to seizures”, the fatality latency entry is recorded as “prolonged fatality latencies” and the fatality rate result is “decreased the fatality rate”. Moreover, the IC50 in test [3] came to 0.28 µM.

The compound `CC(C)(C)NC(=O)CN1CCC2(CC1)C[C@H]2C(=O)Nc1cc(C(F)(F)F)cc(C(F)(F)F)c1` (single isomer, unassigned) [Example 132, (R)—N-(3,5-Bis(trifluoromethyl)phenyl)-6-(2-(tert-butylamino)-2-oxoethyl)-6-azaspiro[2.5]octane-1-carboxamide or (S)—N-(3,5-Bis(trifluoromethyl)phenyl)-6-(2-(tert-butylamino)-2-oxoethyl)-6-azaspiro[2.5]octane-1-carboxamide] showed an IC50 in test [1] of 51.6 µM. In test [2], the latency to seizures entry is “significantly prolonged latencies to seizures”, the fatality latency result is recorded as “prolonged fatality latencies” and the fatality rate result is listed as “decreased the fatality rate”. In test [3], this compound returned an IC50 of 7.61 µM.

In test [1], `CC(C)(C)NC(=O)CN1CCC2(CC1)C[C@H]2NC(=O)c1cc(C(F)(F)F)cc(C(F)(F)F)c1` (single isomer, unassigned) [Example 144, ((R)—N-(6-(2-(tert-butylamino)-2-oxoethyl)-6-azaspiro[2.5]octan-1-yl)-3,5-bis(trifluoromethyl)benzamide or (S)—N-(6-(2-(tert-butylamino)-2-oxoethyl)-6-azaspiro[2.5]octan-1-yl)-3,5-bis(trifluoromethyl)benzamide] displayed an IC50 of 19.2 µM. In addition, in test [2], the latency to seizures result is listed as “significantly prolonged latencies to seizures”, the fatality latency entry was “prolonged fatality latencies” and the fatality rate result was “decreased the fatality rate”. Also, the IC50 in test [3] came to 0.25 µM.

On to `CC(C)(C)NC(=O)CN1CCC2(CC1)C[C@H]2NC(=O)C12CC3CC(CC(C3)C1)C2` (single isomer, unassigned) [Example 145, N—((R)-6-(2-(tert-butylamino)-2-oxoethyl)-6-azaspiro[2.5]octan-1-yl)adamantane-1-carboxamide or N—((S)-6-(2-(tert-butylamino)-2-oxoethyl)-6-azaspiro[2.5]octan-1-yl)adamantane-1-carboxamide], for which the inhibition at 3 µM in test [1] (3 μM, values in brackets, read-out: Cardiac Na+ (%) inh. at 3 μM) turned out to be 0%. Further, in test [2], the latency to seizures result was “significantly prolonged latencies to seizures”, the fatality latency result is “prolonged fatality latencies” and the fatality rate entry is reported as “decreased the fatality rate”. The IC50 in test [3] turned out to be 0.31 µM.

Turning to `CC(C)(C)NC(=O)CN1CCC2(CC1)CC2NC(=O)c1cc(F)cc(Cl)c1` (stereo not drawn) [Example 17, N-(6-(2-(tert-Butylamino)-2-oxoethyl)-6-azaspiro[2.5]octan-1-yl)-3-chloro-5-fluorobenzamide], in test [2], the latency to seizures entry was “significantly prolonged latencies to seizures”, the fatality latency result is given as “prolonged fatality latencies” and the fatality rate entry is “decreased the fatality rate”. For the same compound, half-maximal inhibition in test [3] (IC50) was put at 0.29 µM.
